# Results: patent US20240368164A1, “PURINE NUCLEOSIDES, THEIR INTERMEDIATES, AND METHODS OF PREPARATION THEREOF” (Astrocyle Pharmaceuticals, Inc., priority 2021, published 2024)
# pKi: −log10 of the molar value.
# Columns and labels:
# [1] = Plasma protein binding (free fraction); format: in vitro ADME, mouse
# From the text: (§1) Example 3 of U.S. Pat. No. 9,789,131, which is incorporated herein by reference, describes assays for determining the plasma and brain free fraction of certain compounds such as I-1. Compounds described herein may be evaluated using such assays or similar variants thereof.
# A3 receptor in the mouse = target: T1, A3 receptor in the mouse (Mus musculus, UniProt Q61618); assay: Affinity at the mouse A3 receptor; format: binding
# T1 sequence (Q61618 1-319): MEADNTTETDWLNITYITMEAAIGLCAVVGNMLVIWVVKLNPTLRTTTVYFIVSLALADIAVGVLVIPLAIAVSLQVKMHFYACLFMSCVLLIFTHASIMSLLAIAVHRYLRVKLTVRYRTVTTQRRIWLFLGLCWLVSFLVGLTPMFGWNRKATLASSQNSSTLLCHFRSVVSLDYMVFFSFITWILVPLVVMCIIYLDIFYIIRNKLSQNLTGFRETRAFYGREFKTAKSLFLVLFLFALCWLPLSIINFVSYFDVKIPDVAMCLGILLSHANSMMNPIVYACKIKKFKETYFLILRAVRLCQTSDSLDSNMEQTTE
# Method: Similar competition binding assays may be conducted using HEK293 cell membranes expressing mARs using [^125I]I-AB-MECA to label A1 or A3ARs and [3H]CGS21680 to label A2AARs. IC50 values were converted to Ki values using known methods. Nonspecific binding was determined in the presence of 100 μM NECA.
# Human A3R = target: T2, Human A3R (Homo sapiens, UniProt P0DMS8); assay: Radioligand binding at human A3 adenosine receptor ([125I]I-AB-MECA, CHO cell membranes); conditions: n = 1; read-out: Affinity (nM) at Human A3R
# T2 construct: expressed in transfected cells
# T2 sequence (P0DMS8 1-318): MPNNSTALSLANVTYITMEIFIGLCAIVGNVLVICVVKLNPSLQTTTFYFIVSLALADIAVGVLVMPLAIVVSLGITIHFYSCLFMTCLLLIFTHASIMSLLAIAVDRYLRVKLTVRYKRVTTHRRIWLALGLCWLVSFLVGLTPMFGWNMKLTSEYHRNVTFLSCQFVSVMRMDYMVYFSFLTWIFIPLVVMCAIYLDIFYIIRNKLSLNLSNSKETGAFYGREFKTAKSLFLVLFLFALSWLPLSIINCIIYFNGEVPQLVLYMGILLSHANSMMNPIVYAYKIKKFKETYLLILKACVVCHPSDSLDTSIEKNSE
# Method: [3H]R—N^6-Phenylisopropyladenosine ([3H]R-PIA, 63 Ci/mmol), [^3H](2-[p-(2-carboxyethyl)phenyl-ethylamino]-5′-N-ethylcarboxamido-adenosine) ([^3H]CGS21680, 40.5 Ci/mmol) and [^125I]N^6-(4-amino-3-iodobenzyl)adenosine-5′-N-methyluronamide ([^125I]I-AB-MECA, 2200 Ci/mmol) were purchased from Perkin-Elmer Life and Analytical Science (Boston, MA). Test compounds were prepared as 5 mM stock solutions in DMSO and stored frozen.
# Cell Culture and Membrane Preparation—CHO cells stably expressing the recombinant hA1 and hA3ARs and HEK293 cells stably expressing the hA2AAR were cultured in Dulbecco's modified Eagle medium (DMEM) and F12 (1:1) supplemented with 10% fetal bovine serum, 100 units/mL penicillin, 100 μg/mL streptomycin, and 2 μmol/mL glutamine. In addition, 800 μg/mL geneticin was added to the A2A media, while 500 μg/mL hygromycin was added to the A1 and A3 media. After harvesting, cells were homogenized and suspended in PBS. Cells were then centrifuged at 240 g for 5 min, and the pellet was resuspended in 50 mM Tris-HCl buffer (pH 7.5) containing 10 mM MgCl2. The suspension was homogenized and was then ultra-centrifuged at 14,330 g for 30 min at 4° C. The resultant pellets were resuspended in Tris buffer, incubated with adenosine deaminase (3 units/mL) for 30 min at 37° C. The suspension was homogenized with an electric homogenizer for 10 sec, pipetted into 1 mL vials and then stored at −80° C. until the binding experiments. The protein concentration was measured using the BCA Protein Assay Kit from Pierce Biotechnology, Inc. (Rockford, IL).
# Binding assays: Into each tube in the binding assay was added 50 μL of increasing concentrations of the test ligand in Tris-HCl buffer (50 mM, pH 7.5) containing 10 mM MgCl2, 50 μL of the appropriate agonist radioligand, and finally 100 μL of membrane suspension. For the A1AR (22 μg of protein/tube) the radioligand used was [^3H]R-PIA (final concentration of 3.5 nM). For the A2AAR (20 μg/tube) the radioligand used was [^3H]CGS21680 (10 nM). For the A3AR ([…]) the radioligand used was [^125I]I-AB-MECA (0.34 nM). Nonspecific binding was determined using a final concentration of 10 μM NECA diluted with the buffer. The mixtures were incubated at 25° C. for 60 min in a shaking water bath. Binding reactions were terminated by filtration through Brandel GF/B filters under a reduced pressure using a M-24 cell harvester (Brandel, Gaithersburg, MD). Filters were washed three times with 3 mL of 50 mM ice-cold Tris-HCl buffer (pH 7.5). Filters for A1 and A2AAR binding were placed in scintillation vials containing 5 mL of Hydrofluor scintillation buffer and counted using a Perkin Elmer Liquid Scintillation Analyzer (Tri-Carb 2810TR). Filters for A3AR binding were counted using a Packard Cobra II T-counter. The Ki values were determined using GraphPad Prism for all assays.
# A3R binding of selected compounds. Using methods described herein, the affinity of selected compounds at the A3 receptor was measured.
# [2] = Nonspecific brain tissue binding (free fraction); format: in vitro ADME, mouse
# From the text: as §1
structure (smiles),measurement,setting,value
"CSc1nc(N)c2ncn([C@H]3[C@H](O)[C@H](O)[C@]4(CO)C[C@H]34)c2n1 [Compound I-1, (1R,2R,3S,4R,5S)-4-(6-Amino-2-(methylthio)-9H-purin-9-yl)-1-(hydroxymethyl)bicyclo[3.1.0]hexane-2,3-diol]",free (unbound) fraction in plasma,[1],0.74
same,difference in affinity of I-1 and Cl-IB-MECA at mouse A3 receptor,A3 receptor in the mouse; I-1 versus Cl-IB-MECA,"approximately 25,000 fold"
same,pKi,"A3 receptor in the mouse; mouse A3 receptor, read-out: affinity as agonist of the A3 receptor in the mouse",5.31
same,Ki,Human A3R,1490 nM
same,free (unbound) fraction in brain,[2]; brain tissue,0.13
same,"fraction available to interact with the A3 receptor, relative to Cl-IB-IMECA","[2]; mouse models, from unbound fractions",at least 1000 fold
